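A five-concentration, 48-hour dose response in 96-well plates underlies each endpoint, interpolated linearly between surrounding concentrations. Here, GI50 denotes the concentration required for 50% inhibition of growth.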 The source made the active and inactive calls. Cut-off read from the data, not from the text of the source: active = GI50 up to about 1.1 µM and inactive = higher.
Columns and labels:
Experiment in all cases: growth of human tumour cells (NCI), 48 h
[1] = test system: 786-0
[2] = test system: A498
[3] = test system: A549
[4] = test system: ACHN
[5] = test system: BT-549
[6] = test system: CAKI-1
[7] = test system: CCRF-CEM
[8] = test system: COLO 205
[9] = test system: DU-145
[10] = test system: EKVX
[11] = test system: HCC 2998
[12] = test system: HCT-116
[13] = test system: HCT-15
[14] = test system: HL-60
[15] = test system: HOP-62
[16] = test system: HOP-92
[17] = test system: HT-29
[18] = test system: Hs-578T
[19] = test system: IGROV-1
[20] = test system: K562
[21] = test system: KM12
[22] = test system: LOX IMVI
[23] = test system: M14
[24] = test system: MCF7
[25] = test system: MDA-MB-231
[26] = test system: MDA-MB-435
[27] = test system: MDA-N
[28] = test system: MOLT-4
[29] = test system: Malme-3M
[30] = test system: NCI-H226
[31] = test system: NCI-H23
[32] = test system: NCI-H460
[33] = test system: NCI-H522
[34] = test system: NCI/ADR-RES
[35] = test system: OVCAR-3
[36] = test system: OVCAR-4
[37] = test system: OVCAR-5
[38] = test system: OVCAR-8
[39] = test system: PC-3
[40] = test system: RPMI-8226
[41] = test system: RXF 393
[42] = test system: SF-268
[43] = test system: SF-295
[44] = test system: SF-539
[45] = test system: SK-MEL-28
[46] = test system: SK-MEL-2
[47] = test system: SK-MEL-5
[48] = test system: SK-OV-3
[49] = test system: SN12C
[50] = test system: SNB-19
[51] = test system: SNB-75
[52] = test system: SR
[53] = test system: SW-620
[54] = test system: T47D
[55] = test system: TK-10
[56] = test system: U-251
[57] = test system: UACC-257
[58] = test system: UACC-62
[59] = test system: UO-31

Compound: O=C(O)C(F)(OC(F)(F)C(F)(OC(F)(F)C(F)(F)C(F)(F)F)C(F)(F)F)C(F)(F)F (stereo not drawn)
- GI50 [1]: > 100 µM (inactive)
- GI50 [2]: > 100 µM (inactive)
- GI50 [3]: > 100 µM (inactive)
- GI50 [4]: > 100 µM (inactive)
- GI50 [5]: > 100 µM (inactive)
- GI50 [6]: > 100 µM (inactive)
- GI50 [7]: > 100 µM (inactive)
- GI50 [8]: > 100 µM (inactive)
- GI50 [9]: > 100 µM (inactive)
- GI50 [10]: > 100 µM (inactive)
- GI50 [11]: > 100 µM (inactive)
- GI50 [12]: > 100 µM (inactive)
- GI50 [13]: > 100 µM
- GI50 [14]: > 100 µM (inactive)
- GI50 [15]: > 100 µM (inactive)
- GI50 [16]: 63.7 µM (inactive)
- GI50 [17]: > 100 µM (inactive)
- GI50 [18]: > 100 µM (inactive)
- GI50 [19]: > 100 µM (inactive)
- GI50 [20]: > 100 µM (inactive)
- GI50 [21]: > 100 µM (inactive)
- GI50 [22]: > 100 µM (inactive)
- GI50 [23]: > 100 µM (inactive)
- GI50 [24]: > 100 µM (inactive)
- GI50 [25]: > 100 µM (inactive)
- GI50 [26]: > 100 µM (inactive)
- GI50 [27]: > 100 µM (inactive)
- GI50 [28]: > 100 µM (inactive)
- GI50 [29]: > 100 µM (inactive)
- GI50 [30]: > 100 µM (inactive)
- GI50 [31]: > 100 µM (inactive)
- GI50 [32]: > 100 µM (inactive)
- GI50 [33]: > 100 µM (inactive)
- GI50 [34]: > 100 µM (inactive)
- GI50 [35]: > 100 µM (inactive)
- GI50 [36]: > 100 µM (inactive)
- GI50 [37]: > 100 µM (inactive)
- GI50 [38]: > 100 µM (inactive)
- GI50 [39]: 59.7 µM (inactive)
- GI50 [40]: > 100 µM (inactive)
- GI50 [41]: > 100 µM (inactive)
- GI50 [42]: > 100 µM (inactive)
- GI50 [43]: > 100 µM (inactive)
- GI50 [44]: > 100 µM (inactive)
- GI50 [45]: > 100 µM (inactive)
- GI50 [46]: > 100 µM (inactive)
- GI50 [47]: > 100 µM (inactive)
- GI50 [48]: > 100 µM (inactive)
- GI50 [49]: 78.5 µM (inactive)
- GI50 [50]: > 100 µM (inactive)
- GI50 [51]: > 100 µM (inactive)
- GI50 [52]: > 100 µM (inactive)
- GI50 [53]: > 100 µM (inactive)
- GI50 [54]: > 100 µM (inactive)
- GI50 [55]: > 100 µM (inactive)
- GI50 [56]: > 100 µM (inactive)
- GI50 [57]: > 100 µM (inactive)
- GI50 [58]: > 100 µM (inactive)
- GI50 [59]: > 100 µM (inactive)

Compound: CC(=O)O/C(=C1\C[C@H]2[C@@H]3CC=C4C[C@@H](OC(C)=O)CC[C@]4(C)[C@H]3CC[C@]2(C)C1=O)C(F)(F)F
- GI50 [1]: 8.53 µM (inactive)
- GI50 [2]: 19.3 µM (inactive)
- GI50 [3]: 15.3 µM (inactive)
- GI50 [4]: 16.2 µM (inactive)
- GI50 [5]: 12.2 µM (inactive)
- GI50 [6]: 9.71 µM (inactive)
- GI50 [7]: 1.95 µM (inactive)
- GI50 [8]: 10.8 µM (inactive)
- GI50 [9]: 9.95 µM (inactive)
- GI50 [10]: 12.7 µM (inactive)
- GI50 [11]: 6.31 µM (inactive)
- GI50 [12]: 6.15 µM (inactive)
- GI50 [13]: 4.03 µM
- GI50 [14]: 3.51 µM (inactive)
- GI50 [15]: 14.1 µM (inactive)
- GI50 [16]: 8.24 µM (inactive)
- GI50 [17]: 10.1 µM (inactive)
- GI50 [18]: 7 µM (inactive)
- GI50 [19]: 5.56 µM (inactive)
- GI50 [20]: 0.977 µM (active)
- GI50 [21]: 12.7 µM (inactive)
- GI50 [22]: 1.86 µM (inactive)
- GI50 [23]: 7.19 µM (inactive)
- GI50 [24]: 5.86 µM (inactive)
- GI50 [25]: 10.4 µM (inactive)
- GI50 [26]: 7.85 µM (inactive)
- GI50 [27]: 7.64 µM (inactive)
- GI50 [28]: 2.59 µM (inactive)
- GI50 [29]: 3.56 µM (inactive)
- GI50 [30]: 21 µM (inactive)
- GI50 [31]: 6.85 µM (inactive)
- GI50 [32]: 4.7 µM (inactive)
- GI50 [33]: 3.18 µM (inactive)
- GI50 [34]: 7.16 µM (inactive)
- GI50 [35]: 5.87 µM (inactive)
- GI50 [36]: 11.4 µM (inactive)
- GI50 [37]: 29.4 µM (inactive)
- GI50 [38]: 5.18 µM (inactive)
- GI50 [39]: 13.5 µM (inactive)
- GI50 [40]: 4.08 µM (inactive)
- GI50 [41]: 6.19 µM (inactive)
- GI50 [42]: 6.62 µM (inactive)
- GI50 [43]: 16.2 µM (inactive)
- GI50 [44]: 7.24 µM (inactive)
- GI50 [45]: 14.9 µM (inactive)
- GI50 [46]: 7.62 µM (inactive)
- GI50 [47]: 6.08 µM (inactive)
- GI50 [48]: 20.1 µM (inactive)
- GI50 [49]: 8.97 µM (inactive)
- GI50 [50]: 17.8 µM (inactive)
- GI50 [51]: 21.9 µM (inactive)
- GI50 [52]: 2.88 µM (inactive)
- GI50 [53]: 5.61 µM (inactive)
- GI50 [54]: 7.4 µM (inactive)
- GI50 [55]: 12.2 µM (inactive)
- GI50 [56]: 5.43 µM (inactive)
- GI50 [57]: 6.98 µM (inactive)
- GI50 [58]: 8.77 µM (inactive)
- GI50 [59]: 12.1 µM (inactive)

— ChEMBL document CHEMBL1201862, “PubChem BioAssay data set” (2004)
